pIC50: −log10 of the molar value.

The target in the assay is T1, His6-DDR2 (cytoplasmic domain of human DDR2) (Homo sapiens, UniProt Q16832).
T1 construct: cytoplasmic domain of DDR2 having 6 histidines fused to the N-terminus thereof; made in house; host or cells: Sf9 insect cells (baculovirus, pFastBac-HT)
T1 sequence (Q16832 422-855 limits assumed): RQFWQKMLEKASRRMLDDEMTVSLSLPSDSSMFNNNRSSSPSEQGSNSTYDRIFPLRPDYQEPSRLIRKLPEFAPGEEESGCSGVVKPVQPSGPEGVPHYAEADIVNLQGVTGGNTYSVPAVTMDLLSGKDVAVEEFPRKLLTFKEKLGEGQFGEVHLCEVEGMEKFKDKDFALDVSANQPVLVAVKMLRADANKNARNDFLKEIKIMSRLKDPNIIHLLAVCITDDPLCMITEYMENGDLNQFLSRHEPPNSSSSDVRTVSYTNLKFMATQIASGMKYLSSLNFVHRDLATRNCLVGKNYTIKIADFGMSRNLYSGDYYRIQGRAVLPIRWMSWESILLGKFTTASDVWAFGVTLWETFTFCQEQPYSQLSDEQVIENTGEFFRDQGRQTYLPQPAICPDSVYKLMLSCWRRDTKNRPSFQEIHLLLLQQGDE
In words: Determination of DDR2 kinase inhibitory activity (His6-DDR2 tyrosine autophosphorylation, HTRF). Type of assay: biochemical. As to conditions: cell free, ATP, room temperature 10 minutes, HTRF detection; read-out: IC50 (concentration of the test substance required for inhibiting His6-DDR2 kinase activity by 50%). From the text:
A DNA fragment of cytoplasmic domain of human DDR2 (SEQ ID NO: 1) was isolated by PCR method (Expand High Fidelity (purchased from Roche)) according to a conventional technique using human brain cDNA library (purchased from Clontech) as a template and SEQ ID NO:3: 5′-[…]-3′ and SEQ ID NO:4: 5′-[…]-3′ (purchased from JBioS) as primers. This DNA fragment was inserted into a baculovirus transplacement vector (pFastBac™-HT (purchased from Invitrogen)) to obtain a recombinant construct. Insect cells (Spodoptera frugiperda 9 (Sf9 cells)) were transfected with this recombinant construct, thereby preparing a DDR2 recombinant baculovirus solution. For preparation of a recombinant baculovirus, we referred to a standard textbook (Bac-to-Bac Baculovirus Expression System (Invitrogen)).
The above-described DDR2 recombinant Baculovirus solution (0.07 mL) was added to Sf9 cells (7×10^7 cells) suspended in 2.5% FBS-containing SF-900II medium (purchased from Invitrogen) and shake-cultured at 27° C. for 72 hours. Then, this DDR2 recombinant Baculovirus-infected cells were subjected to centrifugation at 1,600 rpm at 4° C. for 6 minutes and the supernatant was removed. The precipitated infected cells were suspended in 10 mL of ice-cold PBS and centrifuged at 1,600 rpm at 4° C. for 6 minutes to remove the supernatant. The precipitated infected cells were suspended in 5 mL of ice-cold lysis buffer (50 mM Tris-HCl (pH 8.5), 5 mM 2-mercaptoethanol, 100 mM KCl, 1 mM PMSA, 1% (v/v) NP40), and centrifuged at 10,000 rpm at 4° C. for 10 minutes to obtain the supernatant.
This supernatant was added to a Ni-NTA agarose column (1.5 mL (purchased from Qiagen)) equilibrated with 5 mL of buffer A (20 mM Tris-HCl (pH 8.5), 5 mM 2-mercaptoethanol, 500 mM KCl, 20 mM imidazole, 10% (v/v) glycerol). This column was sequentially washed with 10 mL of buffer A, 2 mL of buffer B (20 mM Tris-HCl (pH8.5), 5 mM 2-mercaptoethanol, 1 M KCl, 10% (v/v) glycerol) and 2 mL of buffer A. Subsequently, 4 mL of buffer C (20 mM Tris-HCl (pH 8.5), 5 mM 2-mercaptoethanol, 100 mM KCl, 100 mM imidazole, 10% (v/v) glycerol) was added to obtain an eluate. This eluate was placed in a dialysis membrane (purchased from Spectrum Medical Industries) and dialyzed against 1 L of dialysis buffer (20 mM Tris-HCl, 10% (v/v) glycerol, 1 mM dithiothreitol, 0.1 mM Na3VO4, 0.1 mM EGTA) at 4° C. overnight. After dialysis, a portion of the eluate was subjected to SDS-PAGE and an amount of the recombinant protein detected at a molecular weight of about 40 kDa (His6-DDR2 (cytoplasmic domain of DDR2 having 6 histidines fused to the N-terminus thereof)) by Coomassie brilliant blue staining was quantitated using BSA as a standard substance.
To each well of a 96-well black half plate (purchased from Corning, Product No: 3694), 20 ng of His6-DDR2, 35 μL of 25 mM Hepes solution (pH 7.4) containing 14 mM MgCl2 and a test substance dissolved in dimethylsulfoxide (at 100-fold dilution with 1% BSA; 5 μL) were added to a total amount of 40 μL. To this, […] of 50 μM ATP (purchased with Sigma) diluted with 25 mM Hepes solution was added and incubated at room temperature for 10 minutes. Thereafter, 10 μL of 50 mM EDTA (pH 8.0) (purchased from Wako Pure Chemical Industries) was added to terminate the kinase reaction.
Tyrosine-phosphorylated DDR2 was detected using homogeneous time resolved fluorescence (HTRF) technique (Analytical Biochemistry, 269, 94-104, 1999). Specifically, to each well of the reaction solutions mentioned above, 20 μL of 25 mM Hepes solution containing 1 M KF, 4.75 ng of europium cryptate-labeled anti-phosphorylated tyrosine antibody (Eu(K)-PT66) and 100 ng of XL665-labeled anti-His antibody (XL665-Anti-His) was added. This reaction solution was incubated at room temperature overnight. Thereafter, fluorescence intensities of each well at 665 nm and 620 nm were measured under irradiation at an excitation wavelength of 337 nm using Discovery HTRF microplate analyzer (from Packard). […]
With `CCNC(=O)Nc1ccc(Oc2ccnc3cc(OC[C@H](O)CN(CC)CC)c(C(=O)NC)cc23)cc1Cl` [Compound 21], the pIC50 is 7.55. For `N#Cc1cc2c(Oc3ccc(Cl)c(NC(=O)NC4CC4)c3)ccnc2cc1OC[C@H](O)CN1CCCC1` [Compound 17], the pIC50 was 7.68. As for `CCCCNC(=O)Nc1ccc(Oc2ccnc3cc(OC)c(OC)cc23)cc1` [Compound 2, N-n-butyl-N′-(4-((6,7-dimethoxy-4-quinolinyl)oxy)phenyl)urea], the pIC50 was 8.14. For `COc1cc2nccc(Oc3ccc4c(ccn4C(=O)Nc4ccc(F)cc4)c3)c2cc1OC` [Compound 9, 6,7-dimethoxy-4-(5-(1-(4-fluorophenylcarbamoyl)-indolyl)oxy)quinoline], the pIC50 is 8.72. For the molecule `COc1cc2nccc(Oc3ccc(NC(=O)Nc4ccc(F)cc4)c(F)c3)c2cc1C(N)=O` [Compound 8, 4-(4-((4-fluoroanilino)carbonyl)amino-3-fluorophenoxy)-7-methoxy-6-quinoline carboxamide], the pIC50 was 8.92. Then `COCCNC(=O)c1cc2c(Oc3ccc(NC(=O)NC4CC4)c(Cl)c3)ccnc2cc1OC` [Compound 13, N6-(2-methoxyethyl)-4-(3-chloro-4-(((cyclopropylamino)carbonyl)amino)phenoxy)-7-methoxy-6-quinolinecarboxamide], with 7.74; and `COc1cc2nccc(Oc3ccc(NC(=O)Nc4cccc(SC)c4)cc3)c2cc1OC` [Compound 5, N-(3-methylthiophenyl)-N′-(4-((6,7-dimethoxy-4-quinolinyl)oxy)phenyl)urea], with 8.92; and `COc1cc2nccc(Oc3ccc(NC(=O)Nc4cccc(C(N)=O)c4)cc3)c2cc1OC` [Compound 4, N-(3-carbamoylphenyl)-N′-(4-((6,7-dimethoxy-4-quinolinyl)oxy)phenyl)urea], with 8.89. Consider `COCCOc1cc2nccc(Oc3ccc(NC(=O)Nc4cccc(S(C)(=O)=O)c4)c(F)c3)c2cc1C#N` [Compound 7, N-(4-(6-cyano-7-(2-methoxyethoxy)-4-quinolyl)oxy-2-fluorophenyl)-N′-(3-methylsulfonylphenyl)urea], for which the pIC50 is 9.20. With `CCNC(=O)Nc1ccc(Oc2ccnc3cc(OCC4CCN(C)CC4)c(C(=O)NC)cc23)cc1Cl` [Compound 23, N6-methyl-4-(3-chloro-4-(((ethylamino)carbonyl)amino)phenoxy)-7-((1-methyl-4-piperidyl)methoxy)-6-quinolinecarboxamide], the pIC50 is 7.74.

On to `COc1cc2nccc(Oc3ccc4c(ccn4C(=O)NC4CC4)c3)c2cc1C(N)=O` [Compound 12, 6-carbamoyl-4-(1-cyclopropylcarbamoyl-1H-indole-5-yloxy)-7-methoxyquinoline], for which the pIC50 is 9.82. Consider `CCNC(=O)Nc1ccc(Oc2ccnc3cc(OC[C@H](O)CN4CCCC4)c(C(=O)NC)cc23)cc1Cl` [Compound 22, N6-methyl-4-(3-chloro-4-(((ethylamino)carbonyl)amino)phenoxy)-7-((2R)-2-hydroxy-3-(1-pyrrolidino)propoxy)-6-quinolinecarboxamide], for which the pIC50 is 9.40. In the case of `CN1CCC(C(=O)Nc2cc(Oc3ccc4c(ccn4C(=O)Nc4ccccc4)c3)ccn2)CC1` [Compound 14, N1-phenyl-5-((2-(((1-methyl-4-piperidyl)carbonyl)amino)-4-pyridyl)oxy)-1H-1-indolecarboxamide], the pIC50 was 9.62.

Consider `COc1ccc(NC(=O)Nc2ccc(Oc3ccnc4cc(OC)c(OC)cc34)cc2)cc1` [Compound 1, N-(4-methoxyphenyl)-N′-(4-((6,7-dimethoxy-4-quinolinyl)oxy)phenyl)urea], for which the pIC50 was 10.22.

For the molecule `CCNC(=O)Nc1ccc(Oc2ccnc3cc(OC)c(C(=O)NCC)cc23)cc1Cl` [Compound 20, N6-ethyl-4-(3-chloro-4-(((ethylamino)carbonyl)amino)phenoxy)-7-methoxy-6-quinolinecarboxamide], the pIC50 is 6.37. Consider `CNC(=O)c1cc2c(Oc3ccc(NC(=O)NC4CC4)c(Cl)c3)ccnc2cc1OCCOC` [Compound 18, N6-methyl-4-(3-chloro-4-(((cyclopropylamino)carbonyl)amino)phenoxy)-7-(2-methoxyethoxy)-6-quinolinecarboxamide], for which the pIC50 was 9.40.

For `COc1cc2nccc(Oc3ccc(NC(=O)NC4CC4)c(Cl)c3)c2cc1C(N)=O` [Compound 11, 4-(3-chloro-4-(cyclopropylaminocarbonyl)aminophenoxy)-7-methoxy-6-quinolinecarboxamide], the pIC50 is 9.04.

Consider `COc1cc2nccc(Oc3ccc(NC(=O)NCCCSC)c(F)c3)c2cc1C(N)=O` [Compound 10, 4-(3-fluoro-4-((3-methylthiopropylamino)carbonyl)aminophenoxy)-7-methoxy-6-quinolinecarboxamide], for which the pIC50 is 8.82. Take `CNC(=O)Nc1cc(Oc2ccnc3cc(OC)c(C(=O)NC)cc23)ccc1Cl` [Compound 16, N6-methyl-4-(4-chloro-3-(((methylamino)carbonyl)amino)phenoxy)-7-methoxy-6-quinolinecarboxamide]: the pIC50 is 5.72.

On to `CCNC(=O)Nc1ccc(Oc2ccnc3cc(OC)c(C(=O)NC)cc23)cc1Cl` [Compound 19, N6-methyl-4-(3-chloro-4-(((ethylamino)carbonyl)amino)phenoxy)-7-methoxy-6-quinolinecarboxamide], for which the pIC50 is 6.75. With `COc1cc2nccc(Oc3ccc(NC(=O)Nc4cccc(S(C)(=O)=O)c4)cc3)c2cc1OC` [Compound 6, N-(3-methylsulfonylphenyl)-N′-(4-((6,7-dimethoxy-4-quinolinyl)oxy)phenyl)urea], the pIC50 was 8.96. As for `N#Cc1cc2c(Oc3ccc(Cl)c(NC(=O)NC4CC4)c3)ccnc2cc1OCCN1CCCC1` [Compound 15, N-(2-chloro-5-((6-cyano-7-(2-(1-pyrrolidino)ethoxy)-quinolyl)oxy)phenyl)-N′-cyclopropylurea], the pIC50 was 6.09.
